Data set [1] deals with CQI P. falciparum D10. Description: microbe, parasite or virus in culture. Type of data set: cell-based, Plasmodium falciparum. The conditions noted are these: for IC50: 48 h, Malstat, ± SEM; for Selectivity Index IC50D10/IC50 (COS cells): second value of cell. As for the experimental part: The antimalarial assays were carried out according to the method of Nkhoma et al.. Once the cultures reached a parasitemia of 5–15%, they were synchronized four days prior to the day of the assay as described above which allowed the cultures to recover from the stress caused by the D-sorbitol. On the day of the assay, the parasitemia was determined following observation by light microscopy after Giemsa staining of a thin blood smear from the culture. The cultures at young trophozoite stage were diluted to 2% parasitemia and 2% hematocrit by addition of fresh RPMI medium and uninfected erythrocytes. This culture suspension was distributed in 96-well culture plates at 90 µL/well. The peptides and CQ diluted in culture medium lacking albumax II were added to the cultures in triplicate at 10 µL/well to give a total volume of 100 µL/well. Peptide solvent and medium (10 µL/well) was used as sterility control and in growth control and 10 μL 1.0 mM GS was used as positive control. Assays were carried out in at least three biological repeats each consisting of three technical repeats to ascertain reproducibility.
For the activity determination against parasites, plates were incubated at 37 °C for 48 h under an atmosphere of 3% CO2, 4% O2 and 93% N2. The culture suspension was frozen away at −20 °C until determination of the residual lactate dehydrogenase activity of the parasites by the Malstat assay, as adapted from Gomez et al..
For the Malstat assay, the plates were transferred to −80 °C for 1 h following overnight storage at −20 °C to ensure that all the suspensions in each well of the 96-well plate were frozen. The plates were then thawed at room temperature. The Malstat reagent consisted of 200 μL Triton X-100, 2 g L-lactic acid (substrate), 0.66 g Tris-HCl buffer and 0.011 g of 3-acetylpyridine adenine dinucleotide (APAD) (coenzyme for parasite lactate dehydrogenase) in 100 mL analytical quality water set to a pH of 9.0 [93]. The lactate dehydrogenase reaction was initiated by addition of a second solution, NBT/PES solution composed of 1.96 mM nitro blue tetrazolium (NBT) and 0.24 mM phenazine ethosulfate (PES) which was always protected from light. A 15 µL aliquot of the thawed and properly mixed suspension from the assay plates was added to 100 µL of the Malstat reagent, followed by addition of 25 µL of the NBT/PES solution. The reaction mixtures were then incubated at room temperature in the dark for 30 min followed by spectrophotometric measurement of the absorbance of the reduced APAD at 620 nm using a Model 680 Microplate reader from BioRad.
(§1) The data obtained from spectrophotometric measurement of the plates following the lactate dehydrogenase (Malstat) assay were converted to percentage growth inhibition using the data analysis method described by Rautenbach et al.. The background was obtained from control wells in which the parasites were killed with 100 µM GS while total growth was from the wells that were not submitted to peptides. The background for the hemolysis evaluation was from wells in which the uninfected erythrocytes were lysed using 100 µM GS while growth control was from the wells with uninfected erythrocytes that received no peptides. The percentage COS-1 cell death (CellTiter Blue™ assay) was similarly calculated from absorbance values. All the dose–response assay data were evaluated using GraphPad Prism 4.03 (GraphPad Software, San Diego, CA, USA) followed by non-linear regression and sigmoidal curves were fitted (having variable slope and a constant difference of 100 between the top and bottom plateau). Following calculation of the 50% P. falciparum inhibitory concentration (IC50), 50% hemolytic concentration (HC50) and 50% lethal concentration (LC50) for COS-1 cells.

Data set [2] concerns human erythrocytes. Description: Hemolytic activity. Format: cell-based. The conditions noted are these: 2% hematocrit, 1 h at 37 °C, ± SEM. As for the experimental part: To determine the hemolytic activity of the peptides, the duplicate 96-well plates with samples added to 90 μL 2% hematocrit per well were incubated for one hour at 37 °C and centrifuged using a swing-out rotor at 200× g for 3 min. The supernatant was diluted 1:8 in analytical quality water in separate 96-well plates and after mixing, the absorbance of the suspension was determined at 405 nm.
as §1

Data set [3] in a line: Toxicity to COS-1 cells, CellTiter Blue viability. Format: cell-based. As to conditions: African green monkey, resazurin (CellTiter Blue), read-out: Toxicity LC50, COS Cells. As for the experimental part:
COS-1 cells were cultured in DMEM containing 0.9 g/L glucose, 0.12% NaHCO3, 10% fetal calf serum and 1% penicillin–streptomycin at 37 °C and under an atmosphere of 5% CO2 [95]. Twenty hours before the assay, the cells were transferred to 96-well plates at a density of 1.5 × 10^4 cells/well. The peptides from the dilution series were added to each well and incubated for 24 h. The cell viability was measured by adding 20 μL/well resazurin reagent (CellTiter Blue™), followed by four hours incubation at room temperature in the dark and measurement of the absorbance at 560 nm and 600 nm in the BioRad microplate reader.
as §1

Data set [4] deals with P. falciparum D10. Description: Parasite stage distribution, Giemsa staining and light microscopy. Format: cell-based, Plasmodium falciparum. The conditions noted are these: 200 nM, synchronized trophozoite stage cultures, 0 to 48 h. As for the experimental part: For light microscopy, following addition of TpcC, aliquots were collected from the cultures at different time-points for preparation of Giemsa-stained blood smears. The assay was carried out in duplicate and lactate dehydrogenase activity of the residual cultures was determined after 48 h.

Data set [5] deals with P. falciparum D10. Description: Super-resolution structured illumination fluorescence microscopy (SR-SIM) of parasite morphology. Type of data set: cell-based, Plasmodium falciparum. As for the experimental part:
Prior to staining for fluorescence microscopy, the cultures were centrifuged at 300× g for 4 min, then the supernatant was discarded and cells were suspended to the same percentage hematocrit in a solution made of one part analytical quality water and three parts sterile PBS (pH 7.2–7.3) in order to reduce solute concentration.
The fluorescence microscopy involved staining suspended cultures (TpcC treated and untreated) prepared as described above (except for not being synchronized within the last 48 h of culturing) with combinations of trypan blue (red fluorescence) and either SYTO® 9 green-fluorescent nucleic acid stain or LipidTOX™ neutral lipid stain (green fluorescence). To view the neutral lipids, the cells were stained with LipidTOX™ (stock solution dilution at 1:200), incubated for 30 min at room temperature before staining with trypan blue at final concentration of 0.002% v/v. For nucleic acid staining, the cells were stained with SYTO® 9 (stock solution dilution at 1:1000) and trypan blue at final concentration of 0.002% v/v and incubated at room temperature for 15 min. Super-resolution structured illumination (SR-SIM) fluorescence microscopy was carried out as follows: thin ([…]) z-stacks of high-resolution image frames were accumulated in 5 rotations using an alpha Plan-Apochromat 100×/1.46 oil DIC M27 ELYRA objective, employing an ELYRA S.1 (Carl Zeiss Microimaging) microscope equipped with a 488 nm laser (100 mW), 561 nm laser (100 mW) and Andor EM-CCD camera (iXon DU 885). Images were […] using ZEN software (black edition, 2011, version 7.04.287) based on a structured illumination algorithm. Image projections and animations were carried out on reconstructed super-resolution images in ZEN.

Here are results for three compounds from article PMC9219824, “Antiplasmodial Cyclodecapeptides from Tyrothricin Share a Target with Chloroquine” (Antibiotics, 2022).

Square brackets hold non-standard residues; d marks the D form. Peptide text beside a SMILES is read from it. Orn = NCCC[C@H](N)C(=O)O

By IC50 is commonly meant the point on the concentration scale where inhibition reaches its midpoint. Read a low IC50 as greater potency in that assay.

Regarding `CC(C)C[C@@H]1NC(=O)[C@H](CCCN)NC(=O)[C@H](C(C)C)NC(=O)[C@H](Cc2ccccc2)NC(=O)[C@H](CCC(N)=O)NC(=O)[C@H](CC(N)=O)NC(=O)[C@@H](Cc2ccccc2)NC(=O)[C@H](Cc2ccccc2)NC(=O)[C@@H]2CCCN2C(=O)[C@@H](Cc2ccccc2)NC1=O` [PhcA, phenycidine A] (cyclo(FV[Orn]L[dF]PF[dF]NQ)), in data set [1], the IC50 is 0.052 ± 0.017 µM and the “Selectivity Index IC50D10/IC50 (COS cells)” value stood at 154. The “HC50, Erythrocytes” value in data set [2] was 7.1 ± 1.6 (8) μM. Further, in data set [3], the CC50 at 24 h was found to be 8 µM.
Consider `CC(C)C[C@@H]1NC(=O)[C@H](CCCN)NC(=O)[C@H](C(C)C)NC(=O)[C@H](Cc2c[nH]c3ccccc23)NC(=O)[C@H](CCC(N)=O)NC(=O)[C@H](CC(N)=O)NC(=O)[C@@H](Cc2c[nH]c3ccccc23)NC(=O)[C@H](Cc2c[nH]c3ccccc23)NC(=O)[C@@H]2CCCN2C(=O)[C@@H](Cc2ccccc2)NC1=O` [TpcC, tryptocidine C] (cyclo(L[dF]PW[dW]NQWV[Orn])), for which, in data set [1], 0.042 ± 0.017 µM corresponded to half-maximal inhibition (IC50) and the “Selectivity Index IC50D10/IC50 (COS cells)” value amounted to 238. The “increase in activity towards the CQI D10 strain” value in data set [1] (compared with 3D7) is “about a three-fold increase in activity”. In data set [2], the “HC50, Erythrocytes” value was 9.1 ± 1.5 (4) μM. For the same compound, in data set [4], the “effect on parasite stage progression” value is “delay in the occurrence of the schizont stage”. Moreover, the CC50 at 24 h in data set [3] came out at 10 µM. Besides, the “permeabilization or lysis of parasite and erythrocyte membranes (trypan blue leakage)” value in data set [5] (lethal concentration of 200 nM) was “none of the parasite membranes or erythrocyte membrane was permeabilized or lysed”. For the same compound, the “chromatin morphology (SYTO9 nuclear staining)” value in data set [5] (post 6 h treatment) is reported as “abnormality in the packing or compactness of the chromatin”. For the same compound, the “neutral lipid structures (LipidTOX stain)” value in data set [5] (trophozoite stage cultures, after 5 h in culture) was “the lipid structures were distorted and diffused”.
For the compound `CC(C)C[C@@H]1NC(=O)[C@H](CCCN)NC(=O)[C@H](C(C)C)NC(=O)[C@H](Cc2ccc(O)cc2)NC(=O)[C@H](CCC(N)=O)NC(=O)[C@H](CC(N)=O)NC(=O)[C@@H](Cc2ccccc2)NC(=O)[C@H](Cc2ccccc2)NC(=O)[C@@H]2CCCN2C(=O)[C@@H](Cc2ccccc2)NC1=O` [TrcA, tyrocidine A] (cyclo(V[Orn]L[dF]PF[dF]NQY)), the “Selectivity Index IC50D10/IC50 (COS cells)” value in data set [1] is recorded as 51. Besides, in data set [3], the CC50 at 24 h came to 6 µM.
